Experimental data taken from US5962417A, “Methods of modulating melanin synthesis” (Trustees of Boston University, priority 1998, dated 1999).

Legend:
[1] = target: TRP 2
Description: (§1) To investigate whether PKC regulates other melanogenic proteins such as tyrosinase related proteins (TPR 1 and TPR 2), melanocytes were treated with 10^-7 M TPA for 2 weeks, a condition known to deplete PKC, and TRP 1 and TRP 2 protein levels were determined using immunoblot analysis with specific antibodies. […] TRP 1 and TRP 2 were immunoprecipitated and incorporation of ^3 H-glycosamine into these proteins was examined.

[2] = tested on: TRP 1
Description: as §1

[3] = 10^-7 M TPA for 2 weeks (PKC depletion), melanocytes
[4] = TPA for 2 weeks, melanocytes labeled with 3H-glycosamine

For `CCCCCCCCCCCCCC(=O)O[C@@H]1[C@@H](C)[C@@]2(O)[C@@H](C=C(CO)C[C@]3(O)C(=O)C(C)=C[C@@H]23)[C@@H]2C(C)(C)[C@]12OC(C)=O` [TPA, tetraphorbol acetate], the “effect on 65 kd non-glycosylated TRP 2 precursor” value [1, 3] was “unaffected”, the “reduction of level of glycosylated mature form of TRP 2 (80 kd)” value [1, 3] was 50-70% and the “reduction of 3H-glycosamine incorporation into TRP 2” value [1, 4] was over 50%. For the same compound, the “effect on TRP 1 protein level” value [2, 3] was “no effect” and the “effect on glycosylated or non-glycosylated form of TRP 1 (3H-glycosamine labeling)” value [2, 4] was “did not affect”.
